Measured values: US9556165B2 (priority 2012, dated 2017)
≈ marks a conversion by molar mass, not a printed value.

What was measured:
Assay in all cases: MIC determination, broth microdilution (CLSI)
Format in all cases: cell-based
[1] = test system: E. coli ATCC25922; settings: for MIC: Escherichia coli, ATCC25922, strain 1
[2] = test system: K. pneumoniae 60; settings: for MIC: Klebsiella pneumoniae, 60, strain 2
[3] = test system: E. cloacae 34654; settings: for MIC: Enterobacter cloacae, 34654, strain 3
[4] = test system: C. freundii K21/3034; settings: for MIC: Citrobacter freundii, K21/3034, strain 4
[5] = test system: M. morganii 126/3048; settings: for MIC: Morganella morganii, 126/3048, strain 5
[6] = test system: P. aeruginosa PAO1; settings: for MIC: Pseudomonas aeruginosa, PAO1, strain 6
[7] = test system: P. aeruginosa 2297 (AmpC wt); settings: for MIC: Pseudomonas aeruginosa, strain 7
[8] = test system: P. aeruginosa 2297-con (AmpC derepressed); settings: for MIC: Pseudomonas aeruginosa, read-out: strain 8 MIC, strain 8
[9] = test system: A. baumannii ATCC15308; settings: for MIC: Acinetobacter baumannii, ATCC15308, strain 9
[10] = test system: M. catarrhalis ICB489; settings: for MIC: Moraxella catarrhalis, ICB489, strain 12
[11] = test system: E. coli J62; settings: for MIC: Escherichia coli, J62, strain 17, read-out: strain 17 MIC
[12] = test system: E. coli J62-TEM-3; settings: for MIC: Escherichia coli, J62TEM3, read-out: strain 18 MIC, strain 18
[13] = test system: strain 19
[14] = test system: strain 20
[15] = test system: strain 21
[16] = test system: S. maltophilia ICB7569; settings: Stenotrophomonas maltophilia, ICB7569, strain 10
[17] = test system: S. pneumoniae 113; settings: Streptococcus pneumoniae, 113, strain 14; read-out: strain 14 MIC
[18] = test system: S. aureus 133; settings: Staphylococcus aureus, 133, strain 11; read-out: strain 11 MIC
[19] = test system: H. influenzae ATCC 49247; settings: Haemophilus influenzae, ATCC49247, strain 13; read-out: strain 13 MIC
[20] = test system: B. fragilis 6688; settings: Bacteroides fragilis, 6688, strain 15; read-out: strain 15 MIC

Row | Structure (SMILES) | MIC [1] [µg/mL] | MIC [2] [µg/mL] | MIC [3] [µg/mL] | MIC [4] [µg/mL] | MIC [5] [µg/mL] | MIC [6] [µg/mL] | MIC [7] [µg/mL] | MIC [8] [µg/mL] | MIC [9] [µg/mL] | MIC [16] [µg/mL] | MIC [17] [µg/mL] | MIC [11] [µg/mL] | MIC [12] [µg/mL] | MIC [13] [µg/mL] | MIC [14] [µg/mL] | MIC [15] [µg/mL] | MIC [18] [µg/mL] | MIC [10] [µg/mL] | MIC [19] [µg/mL] | MIC [20] [µg/mL] | other results
1 | C[C@H]1[C@H](NC(=O)/C(=N\OC(COc2ccc(C(=N)N)cc2)C(=O)O)c2csc(N)n2)C(=O)N1S(=O)(=O)O (mixture of isomers) [Example 26B, (2S and 2R)-2-({[(1Z)-1-(2-Amino-1,3-thiazol-4-yl)-2-{[(2S,3S)-2-methyl-4-oxo-1-sulfoazetidin-3-yl]amino}-2-oxoethylidene]amino}oxy)-3-(4-carbamidinoyl-phenoxy)propanoic acid] | – | – | – | – | – | – | – | – | – | – | – | – | – | – | – | – | – | – | – | – | strain 1 MIC ([1]; strain 1): 2 µg/mL; strain 2 MIC ([2]; strain 2): 0.5 µg/mL; strain 3 MIC ([3]; strain 3): 1 µg/mL; strain 4 MIC ([4]; strain 4): 2 µg/mL; strain 5 MIC ([5]; strain 5): 0.5 µg/mL; strain 6 MIC ([6]; strain 6): 4 µg/mL; strain 7 MIC [7]: 8 µg/mL; strain 8 MIC ([8]; strain 8): 32 µg/mL; strain 9 MIC ([9]; strain 9): 16 µg/mL; strain 12 MIC ([10]; strain 12): 2 µg/mL; strain 17 MIC ([11]; strain 17): 2 µg/mL; strain 18 MIC ([12]; strain 18): 32 µg/mL; strain 19 MIC [13]: 1 µg/mL; strain 20 MIC [14]: 2 µg/mL; strain 21 MIC [15]: 2 µg/mL
2 | CC1(C)[C@H](NC(=O)/C(=N\OCCOc2ccc(C(=N)N)c(O)c2)c2csc(N)n2)C(=O)N1OS(=O)(=O)O [Example 1, (2Z)-2-(2-Amino-1,3-thiazol-4-yl)-2-{[2-(4-carbamimidoyl-3-hydroxyphenoxy)ethoxy]imino}-N-[(3S)-2,2-dimethyl-4-oxo-1-(sulfooxy)azetidin-3-yl]ethanamide] | 0.25 (≈ 0.448 µM) | 0.25 (≈ 0.448 µM) | 0.5 (≈ 0.897 µM) | 0.5 (≈ 0.897 µM) | 0.125 (≈ 0.224 µM) | 4 (≈ 7.17 µM) | 8 (≈ 14.3 µM) | 4 (≈ 7.17 µM) | 8 (≈ 14.3 µM) | 8 (≈ 14.3 µM) | 16 (≈ 28.7 µM) | 0.25 (≈ 0.448 µM) | 16 (≈ 28.7 µM) | 0.25 (≈ 0.448 µM) | 0.25 (≈ 0.448 µM) | 0.25 (≈ 0.448 µM) | – | – | – | – | –
3 | C[C@H]1[C@H](NC(=O)/C(=N\OCCOc2ccc(C(=N)N)nc2)c2csc(N)n2)C(=O)N1S(=O)(=O)O [Example 3, (2S,3S)-3-{[(2Z)-2-(2-Amino-1,3-thiazol-4-yl)-2-({2-[(6-carbamimidoylpyridin-3-yl)oxy]ethoxy}imino)acetyl]amino}-2-methyl-4-oxoazetidine-1-sulfonic acid] | 0.125 (≈ 0.244 µM) | ≤ 0.063 | 0.125 (≈ 0.244 µM) | ≤ 0.063 | 0.125 (≈ 0.244 µM) | 2 (≈ 3.9 µM) | 4 (≈ 7.8 µM) | 16 (≈ 31.2 µM) | 1 (≈ 1.95 µM) | – | 8 (≈ 15.6 µM) | 0.25 (≈ 0.488 µM) | 16 (≈ 31.2 µM) | 0.125 (≈ 0.244 µM) | 0.125 (≈ 0.244 µM) | 0.25 (≈ 0.488 µM) | ≤ 0.063 | 0.125 (≈ 0.244 µM) | 0.5 (≈ 0.976 µM) | 8 (≈ 15.6 µM) | –
4 | C[C@H]1[C@H](NC(=O)/C(=N\OCCSc2ccc(C(=N)N)cc2)c2csc(N)n2)C(=O)N1S(=O)(=O)O [Example 6, (2S,3S)-3-{[(2Z)-2-(2-Amino-1,3-thiazol-4-yl)-2-({2-[(4-carbamimidoylphenyl)sulfanyl]ethoxy}imino)acetyl]amino}-2-methyl-4-oxoazetidine-1-sulfonic acid] | 0.125 (≈ 0.237 µM) | 0.25 (≈ 0.474 µM) | 0.125 (≈ 0.237 µM) | ≤ 0.125 | ≤ 0.125 | 4 (≈ 7.58 µM) | 8 (≈ 15.2 µM) | 16 (≈ 30.3 µM) | 1 (≈ 1.9 µM) | 32 (≈ 60.7 µM) | 4 (≈ 7.58 µM) | 0.25 (≈ 0.474 µM) | 16 (≈ 30.3 µM) | 0.25 (≈ 0.474 µM) | 0.25 (≈ 0.474 µM) | 0.25 (≈ 0.474 µM) | – | – | – | – | –
5 | C[C@H]1[C@H](NC(=O)/C(=N\OCCNc2ccc(C(=N)N)cc2)c2csc(N)n2)C(=O)N1S(=O)(=O)O [Example 8, (2S,3S)-3-{[(2Z)-2-(2-Amino-1,3-thiazol-4-yl)-2-({2-[(4-carbamimidoylphenyl)amino]ethoxy}imino)acetyl]amino}-2-methyl-4-oxoazetidine-1-sulfonic acid] | 1 (≈ 1.96 µM) | 0.5 (≈ 0.979 µM) | 2 (≈ 3.92 µM) | 0.5 (≈ 0.979 µM) | 0.25 (≈ 0.49 µM) | 8 (≈ 15.7 µM) | 32 (≈ 62.7 µM) | 32 (≈ 62.7 µM) | 4 (≈ 7.83 µM) | – | 8 (≈ 15.7 µM) | 4 (≈ 7.83 µM) | – | 2 (≈ 3.92 µM) | 4 (≈ 7.83 µM) | 4 (≈ 7.83 µM) | 0.25 (≈ 0.49 µM) | 0.5 (≈ 0.979 µM) | 1 (≈ 1.96 µM) | 16 (≈ 31.3 µM) | –
6 | C[C@H]1[C@H](NC(=O)/C(=N\OCCOc2ccc(C(=N)N)cc2F)c2csc(N)n2)C(=O)N1S(=O)(=O)O [Example 19, (2S,3S)-3-{[(2Z)-2-(2-Amino-1,3-thiazol-4-yl)-2-{[2-(4-carbamimidoyl-2-fluorophenoxy)ethoxy]imino}acetyl]amino}-2-methyl-4-oxoazetidine-1-sulfonic acid] | 0.5 (≈ 0.944 µM) | 0.125 (≈ 0.236 µM) | 0.5 (≈ 0.944 µM) | 0.5 (≈ 0.944 µM) | 0.25 (≈ 0.472 µM) | 8 (≈ 15.1 µM) | 16 (≈ 30.2 µM) | – | 4 (≈ 7.55 µM) | – | 16 (≈ 30.2 µM) | 0.5 (≈ 0.944 µM) | 32 (≈ 60.4 µM) | 0.5 (≈ 0.944 µM) | 1 (≈ 1.89 µM) | 1 (≈ 1.89 µM) | – | – | – | – | –
7 | C[C@H]1[C@H](NC(=O)/C(=N\OCCOc2ccc(C(=N)NO)cc2)c2csc(N)n2)C(=O)N1S(=O)(=O)O [Example 21, (2S,3S)-3-{[(2Z)-2-(2-Amino-1,3-thiazol-4-yl)-2-({2-[4-(N-hydroxycarbamimidoyl)phenoxy]ethoxy}imino)acetyl]amino}-2-methyl-4-oxoazetidine-1-sulfonic acid] | 1 (≈ 1.9 µM) | 0.25 (≈ 0.474 µM) | 1 (≈ 1.9 µM) | 0.25 (≈ 0.474 µM) | 0.5 (≈ 0.948 µM) | 16 (≈ 30.3 µM) | 16 (≈ 30.3 µM) | – | 8 (≈ 15.2 µM) | – | 32 (≈ 60.7 µM) | 2 (≈ 3.79 µM) | 16 (≈ 30.3 µM) | 0.5 (≈ 0.948 µM) | 1 (≈ 1.9 µM) | 1 (≈ 1.9 µM) | 0.5 (≈ 0.948 µM) | 0.25 (≈ 0.474 µM) | 1 (≈ 1.9 µM) | 32 (≈ 60.7 µM) | –
8 | CC1(C)[C@H](NC(=O)/C(=N\OCCOc2ccc(C(=N)N)nn2)c2csc(N)n2)C(=O)N1OS(=O)(=O)O [Example 29, (2Z)-2-(2-Amino-1,3-thiazol-4-yl)-2-({2-[(6-carbamimidoylpyridazin-3-yl)oxy]-ethoxy}imino)-N-[(3S)-2,2-dimethyl-4-oxo-1-(sulfooxy)azetidin-3-yl]ethanamide] | 0.25 (≈ 0.46 µM) | 0.25 (≈ 0.46 µM) | 0.5 (≈ 0.92 µM) | 0.25 (≈ 0.46 µM) | 0.25 (≈ 0.46 µM) | 8 (≈ 14.7 µM) | 16 (≈ 29.4 µM) | 8 (≈ 14.7 µM) | 2 (≈ 3.68 µM) | 8 (≈ 14.7 µM) | 4 (≈ 7.36 µM) | 0.5 (≈ 0.92 µM) | 8 (≈ 14.7 µM) | 0.5 (≈ 0.92 µM) | 0.5 (≈ 0.92 µM) | 0.5 (≈ 0.92 µM) | – | – | – | – | –
9 | C[C@H]1[C@H](NC(=O)/C(=N\OCc2cc(C(=N)N)cs2)c2csc(N)n2)C(=O)N1S(=O)(=O)O [Example 32, (2S,3S)-3-{[(2Z)-2-(2-Amino-1,3-thiazol-4-yl)-2-(2-[(4-carbamimidoylthiophen-2-yl)methoxy]imino)acetyl]amino}-2-methyl-4-oxoazetidine-1-sulfonic acid] | 1 (≈ 2.05 µM) | – | 0.5 (≈ 1.03 µM) | 0.5 (≈ 1.03 µM) | 0.5 (≈ 1.03 µM) | 16 (≈ 32.8 µM) | 32 (≈ 65.6 µM) | – | 2 (≈ 4.1 µM) | – | 8 (≈ 16.4 µM) | 2 (≈ 4.1 µM) | 32 (≈ 65.6 µM) | 1 (≈ 2.05 µM) | 2 (≈ 4.1 µM) | 1 (≈ 2.05 µM) | ≤ 0.063 | 0.75 (≈ 1.54 µM) | 0.5 (≈ 1.03 µM) | 3 (≈ 6.15 µM) | –
10 | C[C@H]1[C@H](NC(=O)/C(=N\OCCCOc2ccc(C(=N)N)cc2)c2csc(N)n2)C(=O)N1S(=O)(=O)O [Example 37, (2S,3S)-3-{[(2Z)-2-(2-Amino-1,3-thiazol-4-yl)-2-[{3-(4-carbamimidoylphenoxy)propoxy]imino}acetyl]amino}-2-methyl-4-oxoazetidine-1-sulfonic acid] | 2 (≈ 3.81 µM) | 2 (≈ 3.81 µM) | 2 (≈ 3.81 µM) | 2 (≈ 3.81 µM) | 1 (≈ 1.9 µM) | 8 (≈ 15.2 µM) | 8 (≈ 15.2 µM) | – | 4 (≈ 7.61 µM) | – | 4 (≈ 7.61 µM) | 4 (≈ 7.61 µM) | – | 2 (≈ 3.81 µM) | 2 (≈ 3.81 µM) | 2 (≈ 3.81 µM) | 1 (≈ 1.9 µM) | 0.5 (≈ 0.951 µM) | 1 (≈ 1.9 µM) | 16 (≈ 30.4 µM) | –
